Holding throughout (test): AK assay 384-well format, Prestwick library screening
For one assay, the system named is E. faecium. The format is cell-based, Enterococcus faecium. The settings on record: for fold induction at 50 µM: Enterococcus faecium, 3 h.
In assay [1] the test system is S. aureus strain USA300-0114. It counts as cell-based, Staphylococcus aureus. The settings on record: for fold induction at 50 µM: Staphylococcus aureus, USA300, 3 h.
Another assay relates to K. pneumoniae. The format is cell-based, Klebsiella pneumoniae. The settings on record: for fold induction at 50 µM: Klebsiella pneumoniae, 3 h.
For assay [2], the system named is A. baumannii strain 98-37-09. It counts as cell-based, Acinetobacter baumannii. The settings on record: for fold induction at 50 µM: Acinetobacter baumannii, 983709, 3 h.
The next assay concerns P. aeruginosa. It counts as cell-based, Pseudomonas aeruginosa. The settings on record: for fold induction at 50 µM: Pseudomonas aeruginosa, 3 h.
In a further assay the test system is E. cloacae. It counts as cell-based, Enterobacter cloacae. The settings on record: for fold induction at 50 µM: Enterobacter cloacae, 3 h.
The test system of a further assay is E. coli. The format is cell-based, Escherichia coli. The settings on record: 50 μM final drug concentration; for fold induction at 50 µM: Escherichia coli, 3 h.
[3] abbreviates: 50 μM final drug concentration, planktonic, cutoff for positive 3-fold increase.
The mark [4] stands for this setting: planktonic, […], read-out: AK-based Prestwick Library Screening Results, E. coli (fold increase in extracellular AK activity).
Setting [5] is: planktonic E. coli, 384-well, […], read-out: AK-based Prestwick Library Screening Results: E. coli (increase in extracellular AK activity).
Where [6] appears, read: 50 μM final drug concentration, planktonic, cutoff for positive 3-fold increase, read-out: AK-based Prestwick Library Screening Results, E. faecium (fold increase in extracellular AK activity).
The mark [7] stands for this setting: 50 μM final drug concentration, planktonic, cutoff for positive 3-fold increase, read-out: AK-based Prestwick Library Screening Results, S. aureus (fold increase in extracellular AK activity).
[8] abbreviates: 50 μM final drug concentration, planktonic, cutoff for positive 3-fold increase, read-out: AK-based Prestwick Library Screening Results, K. pneumoniae (fold increase in extracellular AK activity).
The mark [9] stands for this setting: 50 μM final drug concentration, planktonic, cutoff for positive 3-fold increase, read-out: AK-based Prestwick Library Screening Results, A. baumannii (fold increase in extracellular AK activity).
Where [10] appears, read: 50 μM final drug concentration, planktonic, cutoff for positive 3-fold increase, read-out: AK-based Prestwick Library Screening Results, P. aeruginosa (fold increase in extracellular AK activity).
The mark [11] stands for this setting: 50 μM final drug concentration, planktonic, cutoff for positive 3-fold increase, read-out: AK-based Prestwick Library Screening Results, E. cloacae (fold increase in extracellular AK activity).

Structures can show the parent of a compound that is named as a salt. Where two headings read alike, the source gives them in different places.

In the case of `O=c1c(O)c(-c2ccc(O)cc2)oc2cc(O)cc(O)c12` [Kaempferol], the fold induction at 50 µM in the assay with E. faecium (planktonic E. faecium, 50 μM final drug concentration, positive cutoff 3-fold increase, read-out: AK-based Prestwick library screening result, E. faecium (fold increase in extracellular AK activity)) was 1; in assay [1] (planktonic S. aureus, 50 μM final drug concentration, positive cutoff 3-fold increase, read-out: AK-based Prestwick library screening result, S. aureus (fold increase in extracellular AK activity)), 0.2; in the assay with K. pneumoniae (planktonic K. pneumoniae, 50 μM final drug concentration, positive cutoff 3-fold increase, read-out: AK-based Prestwick library screening result, K. pneumoniae (fold increase in extracellular AK activity)), 0.6; in assay [2] (planktonic A. baumannii, 50 μM final drug concentration, positive cutoff 3-fold increase, read-out: AK-based Prestwick library screening result, A. baumannii (fold increase in extracellular AK activity)), 0.5; with P. aeruginosa (planktonic P. aeruginosa, 50 μM final drug concentration, positive cutoff 3-fold increase, read-out: AK-based Prestwick library screening result, P. aeruginosa (fold increase in extracellular AK activity)), 0.6; in the assay with E. cloacae (planktonic E. cloacae, 50 μM final drug concentration, positive cutoff 3-fold increase, read-out: AK-based Prestwick library screening result, E. cloacae (fold increase in extracellular AK activity)) it was 1.6. In the assay with E. coli (planktonic E. coli, positive cutoff 3-fold increase, read-out: AK-based Prestwick library screening result, E. coli (fold increase in extracellular AK activity)), the fold induction at 50 µM was determined as 0.5.

For the compound `NC[C@H]1O[C@H](O[C@H]2[C@H](O)[C@@H](O[C@H]3O[C@H](CO)[C@@H](O)[C@H](N)[C@H]3O)[C@H](N)C[C@@H]2N)[C@H](O)[C@@H](O)[C@@H]1O.O=S(=O)(O)O` [Kanamycin A sulfate], the “AK-based Prestwick Library Screening Results, E. faecium (fold increase in extracellular AK activity)” value with E. faecium (setting [3]) came out at 0.9. The “AK-based Prestwick Library Screening Results, S. aureus (fold increase in extracellular AK activity)” value in assay [1] (setting [3]) was 2.5. The “AK-based Prestwick Library Screening Results, K. pneumoniae (fold increase in extracellular AK activity)” value with K. pneumoniae (setting [3]) came to 1.0. Besides, the “AK-based Prestwick Library Screening Results, A. baumannii (fold increase in extracellular AK activity)” value in assay [2] (setting [3]) was 1.1. Further, in the assay with P. aeruginosa (setting [3]), the “AK-based Prestwick Library Screening Results, P. aeruginosa (fold increase in extracellular AK activity)” value was determined as 1.0. For the same compound, the “AK-based Prestwick Library Screening Results, E. cloacae (fold increase in extracellular AK activity)” value with E. cloacae (setting [3]) stood at 1.9. Also, the “AK-based Prestwick Library Screening Results, E. coli (fold increase in extracellular AK activity)” value in the assay on E. coli (planktonic, cutoff for positive 3-fold increase) was determined as 1.2.

With `CCN1C[C@]2(C)CC[C@H](O)[C@]34C1[C@@H](C[C@H]23)[C@@]1(O)C[C@H](OC)[C@H]2C[C@@H]4[C@@H]1[C@H]2O` [Karakoline], the fold induction at 50 µM with E. faecium (50 μM final drug concentration, planktonic, […], read-out: AK-based Prestwick Library Screening Results, E. faecium (fold increase in extracellular AK activity)) came out at 1; in assay [1] (50 μM final drug concentration, planktonic, […], read-out: AK-based Prestwick Library Screening Results, S. aureus (fold increase in extracellular AK activity)), 1.2; in the assay with K. pneumoniae (50 μM final drug concentration, planktonic, […], read-out: AK-based Prestwick Library Screening Results, K. pneumoniae (fold increase in extracellular AK activity)) it was 0.9; in assay [2] (50 μM final drug concentration, planktonic, […], read-out: AK-based Prestwick Library Screening Results, A. baumannii (fold increase in extracellular AK activity)), 1; in the assay with P. aeruginosa (50 μM final drug concentration, planktonic, […], read-out: AK-based Prestwick Library Screening Results, P. aeruginosa (fold increase in extracellular AK activity)), 1.1; in the assay on E. cloacae (50 μM final drug concentration, planktonic, […], read-out: AK-based Prestwick Library Screening Results, E. cloacae (fold increase in extracellular AK activity)) it was 1.3. In addition, the fold induction at 50 µM in the assay on E. coli (setting [4]) worked out at 1.

For the compound `COC1=CC(=O)O[C@@H](/C=C/c2ccccc2)C1` [Kawain], the fold induction at 50 µM with E. faecium (planktonic E. faecium, 50 μM final drug concentration, 384-well, […], read-out: AK-based Prestwick Library Screening Results: E. faecium (increase in extracellular AK activity)) was found to be 1.1; in assay [1] (planktonic S. aureus, 50 μM final drug concentration, 384-well, […], read-out: AK-based Prestwick Library Screening Results: S. aureus (increase in extracellular AK activity)) it was 1; with K. pneumoniae (planktonic K. pneumoniae, 50 μM final drug concentration, 384-well, […], read-out: AK-based Prestwick Library Screening Results: K. pneumoniae (increase in extracellular AK activity)), 1; in assay [2] (planktonic A. baumannii, 50 μM final drug concentration, 384-well, […], read-out: AK-based Prestwick Library Screening Results: A. baumannii (increase in extracellular AK activity)) it was 1.2; with P. aeruginosa (planktonic P. aeruginosa, 50 μM final drug concentration, 384-well, […], read-out: AK-based Prestwick Library Screening Results: P. aeruginosa (increase in extracellular AK activity)) it was 1; in the assay on E. cloacae (planktonic E. cloacae, 50 μM final drug concentration, 384-well, […], read-out: AK-based Prestwick Library Screening Results: E. cloacae (increase in extracellular AK activity)) it was 1.4. In addition, the fold induction at 50 µM in the assay on E. coli (setting [5]) stood at 1.1.

As for `CC(=O)N1CCN(c2ccc(OCC3COC(Cn4ccnc4)(c4ccc(Cl)cc4Cl)O3)cc2)CC1` (centres unmarked) [Ketoconazole], the fold induction at 50 µM was 0.9 in the assay on E. faecium (setting [6]); 1.2 in assay [1] (setting [7]); 1.2 with K. pneumoniae (setting [8]); 1.5 in assay [2] (setting [9]); 1.1 in the assay with P. aeruginosa (setting [10]); 1.5 in the assay with E. cloacae (setting [11]). The fold induction at 50 µM with E. coli (setting [4]) was found to be 1.3.

Take `CC(C(=O)O)c1cccc(C(=O)c2ccccc2)c1` (centres unmarked) [Ketoprofen]: the fold induction at 50 µM in the assay on E. faecium (read-out: AK-based Prestwick Library Screening Results: E. faecium (increase in extracellular AK activity)) is 0.9; in assay [1] (read-out: AK-based Prestwick Library Screening Results: S. aureus (increase in extracellular AK activity)), 1; in the assay on K. pneumoniae (read-out: AK-based Prestwick Library Screening Results: K. pneumoniae (increase in extracellular AK activity)) it was 1.1; in assay [2] (read-out: AK-based Prestwick Library Screening Results: A. baumannii (increase in extracellular AK activity)) it was 1; in the assay with P. aeruginosa (read-out: AK-based Prestwick Library Screening Results: P. aeruginosa (increase in extracellular AK activity)), 1; with E. cloacae (read-out: AK-based Prestwick Library Screening Results: E. cloacae (increase in extracellular AK activity)), 1.5. Moreover, the fold induction at 50 µM in the assay on E. coli (setting [5]) was found to be 1.1.

Regarding `O=C(c1ccccc1)c1ccc2n1CCC2C(=O)O` (centres unmarked) [Ketorolac tromethamine], the fold induction at 50 µM in the assay on E. faecium (50 μM final drug concentration, cutoff for positive-scoring molecules 3-fold increase, read-out: AK-based Prestwick Library Screening Results, E. faecium (fold increase in extracellular AK activity)) is 1; in assay [1] (50 μM final drug concentration, cutoff for positive-scoring molecules 3-fold increase, read-out: AK-based Prestwick Library Screening Results, S. aureus (fold increase in extracellular AK activity)), 1.1; in the assay with K. pneumoniae (50 μM final drug concentration, cutoff for positive-scoring molecules 3-fold increase, read-out: AK-based Prestwick Library Screening Results, K. pneumoniae (fold increase in extracellular AK activity)), 1; in assay [2] (50 μM final drug concentration, cutoff for positive-scoring molecules 3-fold increase, read-out: AK-based Prestwick Library Screening Results, A. baumannii (fold increase in extracellular AK activity)) it was 1; in the assay with P. aeruginosa (50 μM final drug concentration, cutoff for positive-scoring molecules 3-fold increase, read-out: AK-based Prestwick Library Screening Results, P. aeruginosa (fold increase in extracellular AK activity)), 1; in the assay with E. cloacae (50 μM final drug concentration, cutoff for positive-scoring molecules 3-fold increase, read-out: AK-based Prestwick Library Screening Results, E. cloacae (fold increase in extracellular AK activity)) it was 1.4. Moreover, the fold induction at 50 µM in the assay on E. coli (cutoff for positive-scoring molecules 3-fold increase, read-out: AK-based Prestwick Library Screening Results, E. coli (fold increase in extracellular AK activity)) came out at 1.3.

For the compound `CN1CCC(=C2c3ccccc3CC(=O)c3sccc32)CC1` [Ketotifen fumarate], the fold induction at 50 µM with E. faecium (setting [6]) was 1; in assay [1] (setting [7]) it was 1.1; in the assay with K. pneumoniae (setting [8]), 0.9; in assay [2] (setting [9]), 1.1; in the assay with P. aeruginosa (setting [10]), 1.1; in the assay with E. cloacae (setting [11]), 1.7. Moreover, the fold induction at 50 µM in the assay with E. coli (planktonic, cutoff for positive 3-fold increase, read-out: AK-based Prestwick Library Screening Results, E. coli (fold increase in extracellular AK activity)) was determined as 1.3.

(Values after patent publication US10004701B2, “Methods and compositions for treating infection” (UNIVERSITY OF ROCHESTER, priority 2012, dated 2018).)
